Legend:
[1] = test system: Strain IIIB, wild type HIV-LAI strain; experiment: Antiviral activity, cellular assay, strain IIIB; assay type: cell-based
Experimental: (§1) Because of the increasing emergence of drug resistant HIV strains, the present compounds were tested for their potency against clinically isolated HIV strains harboring several mutations. These mutations are associated with resistance to reverse transcriptase inhibitors and result in viruses that show various degrees of phenotypic cross-resistance to the currently commercially available drugs such as for instance AZT and delavirdine.
(§2) The antiviral activity of the compound of the present invention has been evaluated in the presence of wild type HIV and HIV mutants bearing mutations at the reverse transcriptase gene. The activity of the compounds is evaluated using a cellular assay and the residual activity is expressed in pEC50 values. The columns IIIB and A-G in the table list the pEC50 values against various strains IIIB, A-G.
Strain IIIB is wild type HIV-LAI strain

[2] = test system: Strain A, mutation Y181C in HIV reverse transcriptase; experiment: Antiviral activity, cellular assay, strain A; assay type: cell-based; details: for pEC50 A: HIV strain with RT mutation Y181C, cellular assay
Experimental: as §1, §2
Strain A contains mutation Y181C in HIV reverse transcriptase, […]

[3] = test system: Strain B, mutation K103N in HIV reverse transcriptase; experiment: Antiviral activity, cellular assay, strain B; assay type: cell-based; details: for pEC50 B: HIV strain with RT mutation K103N, cellular assay
Experimental: as §1, §2
Strain B contains mutation K103N in HIV reverse transcriptase, […]

[4] = test system: Strain C, mutation L100I in HIV reverse transcriptase; experiment: Antiviral activity, cellular assay, strain C; assay type: cell-based; details: for pEC50 C: HIV strain with RT mutation L100I, cellular assay
Experimental: as §1, §2
Strain C contains mutation L100I in HIV reverse transcriptase, […]

[5] = test system: Strain D, mutation Y188L in HIV reverse transcriptase; experiment: Antiviral activity, cellular assay, strain D; assay type: cell-based; details: for pEC50 D: HIV strain with RT mutation Y188L, cellular assay
Experimental: as §1, §2
Strain D contains mutation Y188L in HIV reverse transcriptase, […]

[6] = test system: Strain E, mutations L100I and K103N in HIV reverse transcriptase; experiment: Antiviral activity, cellular assay, strain E; assay type: cell-based; details: for pEC50 E: HIV strain with RT mutations L100I and K103N, cellular assay
Experimental: as §1, §2
Strain E contains mutations L100I and K103N in HIV reverse transcriptase, […]

[7] = target: Strain F, mutations K103N and Y181C in HIV reverse transcriptase; experiment: microbe, parasite or virus in culture; assay type: cell-based; details: for pEC50 F: HIV strain with RT mutations K103N and Y181C, cellular assay
[8] = test system: Strain G, mutations L100I, K103N, Y181C, V179I, Y181C, E138G, V179I, L2214F, V278V/1 and A327A/V in HIV reverse transcriptase; experiment: Antiviral activity, cellular assay, strain G; assay type: cell-based; details: HIV strain with RT mutations L100I, K103N, Y181C, V179I, E138G, L2214F, V278V/1 and A327A/V; cellular assay
Experimental: as §1, §2

[9] = Antiviral activity, cellular assay, strain G; assay type: cell-based, HIV; details: Human immunodeficiency virus 1, read-out: pEC50 G (converted)
Experimental: as §1, §2

Cc1cc(/C=C/C#N)cc(C)c1Nc1nc(Nc2ccc(C#N)cc2)ncc1C(=O)O
melting point: > 250 °C

CC(=O)Nc1cnc(Nc2ccc(C#N)cc2)nc1Nc1c(C)cc(/C=C/C#N)cc1C
melting point: > 250 °C

CCON=Cc1cnc(Nc2ccc(C#N)cc2)nc1Nc1c(C)cc(/C=C/C#N)cc1C [Compound 31]
pEC50 IIIB [1]: 8.5
pEC50 A [2]: 8.2
pEC50 B [3]: 8.5
pEC50 C [4]: 8.5
pEC50 D [5]: 8.2
pEC50 E [6]: 8.2
pEC50 F [7]: 8.2
pEC50 G [8]: 5.1

N#C/C=C/c1cc(F)c(Nc2nc(Nc3ccc(C#N)cc3)ncc2N)c(Cl)c1
melting point: > 250 °C

CON=Cc1cnc(Nc2ccc(C#N)cc2)nc1Nc1c(C)cc(/C=C/C#N)cc1C [Compound 32]
pEC50 IIIB [1]: 8.5
pEC50 A [2]: 8.5
pEC50 B [3]: 8.7
pEC50 C [4]: 9.3
pEC50 D [5]: 8.6
pEC50 E [6]: 8.6
pEC50 F [7]: 8.7
pEC50 G [8]: 6

Cc1cc(/C=C/C#N)cc(C)c1Nc1nc(Nc2ccc(C#N)cc2)ncc1[N+](=O)[O-]
melting point: > 250 °C

Cc1cc(/C=C/C#N)cc(C)c1Nc1nc(Nc2ccc(C#N)cc2)ncc1Br
melting point: > 250 °C

N#C/C=C/c1cc(F)c(Nc2nc(Nc3ccc(C#N)cc3)ncc2Br)c(Cl)c1
melting point: 236 °C

Cc1cc(CCC#N)cc(C)c1Nc1nc(Nc2ccc(C#N)cc2)ncc1C(N)=O [Compound 26]
pEC50 IIIB [1]: 9.7
pEC50 A [2]: 9
pEC50 B [3]: 9.7
pEC50 C [4]: 10
pEC50 D [5]: 8.6
pEC50 E [6]: 9.2
pEC50 F [7]: 9.2
pEC50 G [8]: 6.4

Cc1cc(/C=C/C#N)cc(C)c1Nc1nc(Nc2ccc(C#N)cc2)ncc1N
melting point: > 250 °C

Cc1cc(/C=C/C#N)cc(C)c1Nc1nc(Nc2ccc(C#N)cc2)ncc1C(N)=O
melting point: > 250 °C

CC(=O)Nc1cnc(Nc2ccc(C#N)cc2)nc1Nc1c(F)cc(/C=C/C#N)cc1Cl [Compound 28]
pEC50 IIIB [1]: 8.8
pEC50 A [2]: 7.9
pEC50 B [3]: 8.6
pEC50 C [4]: 8.3
pEC50 D [5]: 7.3
pEC50 E [6]: 7
pEC50 F [7]: 7.3
pEC50 G [8]: 4.7

N#C/C=C/c1cc(F)c(Nc2nc(Nc3ccc(C#N)cc3)ncc2[N+](=O)[O-])c(Cl)c1
melting point: > 250 °C

Cc1cc(/C=C/C#N)cc(C)c1Nc1nc(Nc2ccc(C#N)cc2)ncc1NC=O [Compound 13]
EC50 ([1]; Human immunodeficiency virus 1, IIIB): 0.398 nM
EC50 ([2]; Human immunodeficiency virus 1, read-out: pEC50 A (converted)): 2.51 nM
EC50 ([3]; Human immunodeficiency virus 1, read-out: pEC50 B (converted)): 0.631 nM
EC50 ([4]; Human immunodeficiency virus 1, read-out: pEC50 C (converted)): 0.631 nM
EC50 ([5]; Human immunodeficiency virus 1, read-out: pEC50 D (converted)): 3.16 nM
EC50 ([6]; Human immunodeficiency virus 1, read-out: pEC50 E (converted)): 6.31 nM
EC50 ([7]; Human immunodeficiency virus 1, read-out: pEC50 F (converted)): 3.98 nM
EC50 [9]: 1000 nM

Source: patent US8946248B2, “HIV inhibiting 5-substituted pyrimidines” (priority 2004, dated 2015)
